One assay deals with A-172 cells. As to conditions: taken from the literature, ref [5]; read-out: IC50 [uM] ± SEM A-172; cited from earlier work.
Assay [1] has as its system Wnt/β-catenin pathway target genes in T98G cells. Briefly: qPCR of β-catenin and Wnt target genes, T98G. The assay is classed as cell-based, human. Conditions: 48 h. How it is done: Based on the MTT test, the lichen secondary metabolite concentrations allowing the survival of more than 70% of cells were chosen for the subsequent experiments. The compounds were added as follows: A-172 cells—atranorin 25 µM, caperatic acid 50 µM, physodic acid 25 µM, squamatic acid 25 µM, salazinic acid 50 µM, and lecanoric acid 100 µM; T98G cells—atranorin 50 µM, caperatic acid 100 µM, physodic acid 25 µM, squamatic acid 50 µM, salazinic acid 100 µM, and lecanoric acid 100 µM; U-138 MG cells—atranorin 25 µM, caperatic acid 50 µM, physodic acid 25 µM, squamatic acid 50 µM, salazinic acid 50 µM, and lecanoric acid 100 µM. As far as the TMZ treatment is concerned, it was added in the concentrations depending on the MGMT expression and methylation status, i.e., TMZ 30 µM was added to the A-172 cell line, and TMZ 100 µM was added to both the T98G and U-138 MG cell lines. In the case of the 2D culture, the cells were treated with the compounds 24 h after seeding, whereas, in regard to 3D culture, 5 days were needed to form spheroids. All subsequent analyses were performed 48 h after treatment.
The Universal RNA Purification Kit (EURx, Gdańsk, Poland) was used for total RNA isolation from the A-172, T98G, and U-138 MG cells, and the Revert-Aid First Strand cDNA Synthesis kit (Fermentas, Burlington, ON, Canada) was chosen for cDNA synthesis. Quantitative real-time PCR (qPCR) was performed using Hot FIREPol EvaGreen qPCR Mix Plus (Solis Biodyne, Tartu, Estonia) and LightCycler 96 (Roche Diagnostics GmbH, Mannheim, Germany). Primer sequences were previously published and their synthesis was performed at the Institute of Biochemistry and Biophysics, Warsaw, Poland. The protocol started with 15 min enzyme activation at 95 °C, followed by 40 cycles of 95 °C for 15 s; appropriate annealing temperature for 20 s; 72 °C for 40 s and the final elongation at 72 °C for 5 min. Melting curve analysis was used to confirm the generation of a single amplification product. TATA box-binding protein (TBP), a component of the DNA-binding protein complex TFIID, served as the endogenous RNA control. The results were expressed as N-fold differences in the gene expression relative to the TBP gene. The ΔΔCt method was used for fold-change calculation. All samples were analyzed in triplicate, and the reaction was repeated at least twice.

For assay [2], the system named is T98G cells. Conditions: taken from the literature, ref [5]; read-out: IC50 [uM] ± SEM T98G; cited from earlier work.
The subject of assay [3] is T98G cells. Briefly: ROS (superoxide) generation, flow cytometry, T98G. The format is cell-based, human. Conditions: 48 h. How it is done: Based on the MTT test, the lichen secondary metabolite concentrations allowing the survival of more than 70% of cells were chosen for the subsequent experiments. The compounds were added as follows: A-172 cells—atranorin 25 µM, caperatic acid 50 µM, physodic acid 25 µM, squamatic acid 25 µM, salazinic acid 50 µM, and lecanoric acid 100 µM; T98G cells—atranorin 50 µM, caperatic acid 100 µM, physodic acid 25 µM, squamatic acid 50 µM, salazinic acid 100 µM, and lecanoric acid 100 µM; U-138 MG cells—atranorin 25 µM, caperatic acid 50 µM, physodic acid 25 µM, squamatic acid 50 µM, salazinic acid 50 µM, and lecanoric acid 100 µM. […]
The intracellular detection of superoxide radicals was detected by flow cytometric analysis after the staining with dihydroethidium, using The Muse® Oxidative Stress Kit (Merck, Darmstadt, Germany). Briefly, 100,000 cells per well were seeded on 6-well plates and after a 24 h incubation they were treated with the analyzed lichen secondary metabolites in the concentrations allowing >70% of cell survival; cells treated with DMSO were used as the negative control. […] The obtained data were evaluated using Muse® Analysis Software ver. […]
Background: A flow cytometer gives signals particle by particle.

For another assay, the system named is HeLa cells. On the set-up: method as in PMID 35190352. Conditions: ref [30]; cited from earlier work.
For assay [4], the system named is HCT-116 cells. Also noted: method as in PMID 35190352. As to conditions: HCT-116, ref [30]; cited from earlier work.
Assay [5] concerns HCT-116 cells. Also noted: method as in PMID 35190352. Conditions: 30 µg/mL, ref [30]; cited from earlier work.
The subject of assay [6] is HCT-116 cells. On the set-up: method as in PMID 35190352. Conditions: atranorin at 30 µg/mL, ref [30]; cited from earlier work.
For the next assay, the system named is NIH3T3 cells. On the set-up: method as in PMID 35190352. As to conditions: NIH3T3, ref [30]; cited from earlier work.
The subject of assay [7] is MDA-MB-231 breast cancer cells. On the set-up: method as in PMID 32096436. Conditions: MDA-MB-231, ref [31]; read-out: IC50 concentration; cited from earlier work.
Assay [8] concerns MCF-7 breast cancer cells. On the set-up: method as in PMID 32096436. Conditions: MCF-7, ref [31]; read-out: IC50 concentration; cited from earlier work.
[9] abbreviates: mRNA vs DMSO control, single agent.

Some results are limits rather than exact numbers.

As for `Cc1cc(O)c(C=O)c2c1C(=O)Oc1c(CO)c(O)c3c(c1O2)C(O)OC3=O` (stereo not drawn) [Salazinic acid], the IC50 with A-172 cells is > 100 µM. In assay [1] (co-treatment with TMZ 100 µM), the “Axin2 expression” value is listed as “trend toward downregulation” and the “number of the six analyzed genes downregulated” value is listed as “five out of six”. In assay [1] (setting [9]), the “CCND1 expression” value is recorded as “significantly upregulated” and the “c-MYC expression” value is “upregulated”. For the same compound, the “BIRC5 expression” value in assay [1] (mRNA vs DMSO control, single agent, TMZ 100 µM) was “downregulated”. In addition, the IC50 in the assay on T98G cells [2] was > 100 µM.

As to `COc1cc(C)c(C(=O)Oc2cc(C)c(C(=O)O)c(O)c2C)c(O)c1C(=O)O` [Squamatic acid], in [1] (co-treatment with TMZ 100 µM), the “CCND1 expression” value is “downregulated”, the “NEDD9 expression” value is “downregulated”, the “c-MYC expression” value is given as “downregulated” and the “β-catenin (CTNNB1) expression” value is reported as “downregulated”. In assay [1] (setting [9]), the “NEDD9 expression” value was “downregulation” and the “c-MYC expression” value is “trend towards downregulation, but with no statistical significance”. Moreover, the “oxidative stress (superoxide) induction” value with T98G cells [3] is reported as “induce oxidative stress”.

Consider `CCCCCCCCCCCCCCC(C(=O)O)C(O)(CC(=O)OC)C(=O)O` (stereo not drawn) [Caperatic acid], for which, in [1] (setting [9]), the “NEDD9 expression” value is reported as “downregulated”.

Consider `Cc1cc(OC(=O)c2c(C)cc(O)cc2O)cc(O)c1C(=O)O` [Lecanoric acid], for which the “cell cycle distribution” value in the assay on HeLa cells is given as “cell cycle arrest in the G2 phase”. In the assay on HCT-116 cells [4], the “cell cycle distribution” value is recorded as “cell cycle arrest in the G2 phase”. Also, the “viability of HCT-116 cells” value in the assay with HCT-116 cells [5] is recorded as “significantly reduced”. Moreover, in assay [1] (co-treatment with TMZ 100 µM), the “Axin2 expression” value was “downregulated”, the “CCND1 expression” value is “downregulated”, the “c-MYC expression” value was “downregulated” and the “β-catenin (CTNNB1) expression” value is recorded as “downregulated”. For the same compound, the “apoptosis induction” value in the assay on HCT-116 cells [6] was “did not induce apoptosis”. Further, the “cell cycle distribution” value in the assay with NIH3T3 cells is “cell cycle arrest in the G2 phase”.

Take `COC(=O)c1c(C)cc(OC(=O)c2c(C)cc(O)c(C=O)c2O)c(C)c1O` [Atranorin]: the results for the IC50 in assay [7] and in [8] were 5.36 ± 0.85 µM and 7.55 ± 1.2 µM, respectively. In addition, the “cell cycle distribution” value in the assay with HCT-116 cells [4] is “no significant effect”. For the same compound, the “viability of HCT-116 cells” value with HCT-116 cells [5] is given as “significantly reduced”. Also, the “c-MYC expression” value in assay [1] (setting [9]) is on record as “trend towards downregulation, but with no statistical significance”. Moreover, the “apoptosis induction” value in the assay on HCT-116 cells [6] is given as “significantly induced apoptosis”.
